Values quoted from earlier work in patent US5744472A, “1-(N'-(arylalkylaminoalkyl)) aminoisoindoles; a new class of dopamine receptor subtype specific ligands” (Neurogen Corporation, priority 1995, dated 1998).
Like-named read-outs stand apart in the source and are kept apart here.

Columns and labels:
[1] = test system: extrapyramidal side effects (EPS)
D2 receptors = details: background statement
D1 dopamine receptor = details: background statement

SMILES: CN1CCN(C2=Nc3cc(Cl)ccc3Nc3ccccc32)CC1 [clozapine]
- incidence of extrapyramidal side effects ([1]; compared with classical neuroleptics, background statement): lesser incidence of extrapyramidal side effects (EPS) than classical neuroleptics

SMILES: O=C(CCCN1CCC(O)(c2ccc(Cl)cc2)CC1)c1ccc(F)cc1 [haloperidol]
- binding affinity at D2 receptors (D2 receptors): subnanomolar range
- binding at the D1 dopamine receptor (D1 dopamine receptor): binds relatively weakly

SMILES: CCN1CCCC1CNC(=O)c1cc(S(N)(=O)=O)ccc1OC (stereo not shown) [sulpiride]
- incidence of extrapyramidal side effects ([1]; in vivo): lesser incidence of extrapyramidal side effects (EPS) than classical neuroleptics
